Assay results taken from patent publication US20190270733A1, “Quinoline and Isoquinoline Based HDAC Inhibitors and Methods of Use Thereof” (Reaction Biology Corp., priority 2018, published 2019).
“And” between values parts separate entries of the source, which are not always exact repeats. Identical values can stand only once. Like-named read-outs stand apart in the source and are kept apart here.

How the values were obtained:
[1] = biological target: T1, Complex of human HDAC3 and human NCOR2 (Homo sapiens, UniProt O15379); experiment: Biochemical HDAC assay, HDAC3; settings: incubation time 10 min
T1 construct: full-length with a C-terminal His tag; His tag (C); made in house
Experimental: Complex of human HDAC3 (GenBank Accession No. NM_003883), full-length with a C-terminal His tag, MW=49.7 kDa, and human NCOR2 (amino acid 395-489) (GenBank Accession No. NM_006312), N-terminal GST tag, MW=37.6 kDa, was co-expressed in a baculovirus expression system.
(§1) • I. Compound handling: Testing compounds were dissolved in 100% DMSO to a specific concentration. The serial dilution was conducted by epMotion 5070 in DMSO. • II. HDAC reaction buffer: 50 mM Tris-HCl, pH8.0, 137 mM NaCl, 2.7 mM KCl, and 1 mM MgCl2, Added fresh: 1 mg/ml BSA, 1% DMSO. • III. Substrate: Fluorogenic HDAC General Substrate for HDAC1, 2, 3, 6, 10, 11 ans Sirt1, 2 and 3: Arg-His-Lys-Lys(Ac); HDAC8 only substrate: Arg-His-Lys(Ac)-Lys(Ac); Class2A Substrate (HDAC4, 5, 7 and 9): Acetyl-Lys(trifluoroacetyl)-AMC; Sirt5 substrate: Ac-Lys(succinyl)-AMC. • IV. General Reaction Procedure: (Standard IC50 determination) • a. Delivered 2× enzyme in wells of reaction plate except No Enzyme (No En) control wells. Add buffer in No En wells. • b. Delivered compounds in 100% DMSO into the enzyme mixture by Acoustic technology (Echo550; nanoliter range). Spin down and pre-incubation. • c. Delivered 2× Substrate Mixture (Fluorogenic HDAC Substrate and co-factor (500 μM of Nicotinamide adenine dinucleotide (NAD^+) in all Sirt assay) in all reaction wells to initiate the reaction. Spin and shake. • d. Incubated for 1-2 hr. at 30° C. with seal. • e. Added Developer with Trichostatin A (or TMP269 or NAD^+) to stop the reaction and to generate fluorescent color. • f. Fluorescence was read (excitatory, 360; emission, 460) using the EnVision Multilabel Plate Reader (Perkin Elmer) • g. Endpoint reading was taken for analysis after the development reaches plateau. • V. Data Analysis: The percentages of enzyme activity (relative to DMSO controls) and IC50 values were calculated using the GraphPad Prism 4 program based on a sigmoidal dose-response equation.
(§2) Compounds with indicated doses was tested in the biochemical assays of HDAC1, HDAC2, HDAC3, HDAC4, HDAC5, HDAC6, HDAC7, HDAC8, HDAC9, HDAC10, or HDAC11 enzyme. The incubation time in HDAC1/2 assays are 120 min, and that for other HDACs are 10 min. The curve fit and IC50 values were calculated using the GraphPad Prism 4 program based on a sigmoidal dose-response equation.

[2] = Brain exposure experiment in mice; assay type: in vivo; settings: 1 hour after exposure
Experimental: Brain exposure experiments were performed wherein mice were exposed to compound Example 5 at an IV dosage of 1 mg/kg (Table 4).

Human HDAC8 = biological target: T2, Human HDAC8 (Homo sapiens, UniProt Q9BY41); experiment: Biochemical HDAC assay, HDAC8; settings: incubation time 10 min
T2 construct: full-length with a C-terminal His tag; His tag (C); made in house
T2 sequence (Q9BY41 1-377): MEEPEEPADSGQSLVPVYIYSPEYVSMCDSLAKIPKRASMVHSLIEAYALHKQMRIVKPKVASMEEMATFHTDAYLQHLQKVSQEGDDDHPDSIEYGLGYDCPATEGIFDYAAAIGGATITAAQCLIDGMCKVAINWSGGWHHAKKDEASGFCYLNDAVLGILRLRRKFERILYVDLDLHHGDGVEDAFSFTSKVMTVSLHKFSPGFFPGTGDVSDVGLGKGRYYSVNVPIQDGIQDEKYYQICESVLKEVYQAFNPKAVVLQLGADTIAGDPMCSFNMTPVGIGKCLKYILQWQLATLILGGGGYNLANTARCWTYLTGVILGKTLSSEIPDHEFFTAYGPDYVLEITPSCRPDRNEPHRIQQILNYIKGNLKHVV
Experimental: Human HDAC8 (GenBank Accession No. NM_018486), full-length with a C-terminal His tag, MW=46.4 kDa, was expressed in a baculovirus expression system.
as §1, §2

Human HDAC2 = biological target: T3, Human HDAC2 (Homo sapiens, UniProt Q92769); experiment: Biochemical HDAC assay, HDAC2; settings: incubation time 120 min
T3 construct: full-length with a C-terminal His-tag; His-tag (C); made in house
Experimental: Human HDAC2 (GenBank Accession No. NM_001527), full-length with a C-terminal His-tag, MW=56 kDa, was expressed in a baculovirus expression system.
as §1, §2

Human HDAC1 = biological target: T4, Human HDAC1 (Homo sapiens, UniProt Q13547); experiment: Biochemical HDAC assay, HDAC1; settings: incubation time 120 min
T4 construct: full-length with a C-terminal His-tag and a C-terminal FLAG-tag; His-tag (C); FLAG-tag (C); made in house
Experimental: Human HDAC1 (GenBank Accession No. NM_004964), full-length with a C-terminal His-tag and a C-terminal FLAG-tag, MW=56 kDa, was expressed in a baculovirus expression system.
as §1, §2

[3] = IV 1 mg/kg, individual mice, 1 mg/kg

T1 sequence (O15379 whole entry): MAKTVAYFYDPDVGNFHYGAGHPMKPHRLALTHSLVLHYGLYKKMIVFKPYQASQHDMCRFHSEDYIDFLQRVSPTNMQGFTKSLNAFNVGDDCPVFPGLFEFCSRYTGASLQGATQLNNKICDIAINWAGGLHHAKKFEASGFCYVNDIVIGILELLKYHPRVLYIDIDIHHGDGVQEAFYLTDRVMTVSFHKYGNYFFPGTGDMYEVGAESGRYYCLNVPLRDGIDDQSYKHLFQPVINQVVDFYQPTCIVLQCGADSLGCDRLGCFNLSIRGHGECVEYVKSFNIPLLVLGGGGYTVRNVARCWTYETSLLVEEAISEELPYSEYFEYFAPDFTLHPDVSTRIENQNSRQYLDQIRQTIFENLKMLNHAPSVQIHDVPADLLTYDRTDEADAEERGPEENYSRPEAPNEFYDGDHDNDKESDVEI
T1 sequence (Q9Y618 395-489 partner limits assumed): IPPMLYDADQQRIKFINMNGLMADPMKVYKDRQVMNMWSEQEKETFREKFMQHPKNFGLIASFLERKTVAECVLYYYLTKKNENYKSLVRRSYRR
T4 sequence (Q13547 whole entry): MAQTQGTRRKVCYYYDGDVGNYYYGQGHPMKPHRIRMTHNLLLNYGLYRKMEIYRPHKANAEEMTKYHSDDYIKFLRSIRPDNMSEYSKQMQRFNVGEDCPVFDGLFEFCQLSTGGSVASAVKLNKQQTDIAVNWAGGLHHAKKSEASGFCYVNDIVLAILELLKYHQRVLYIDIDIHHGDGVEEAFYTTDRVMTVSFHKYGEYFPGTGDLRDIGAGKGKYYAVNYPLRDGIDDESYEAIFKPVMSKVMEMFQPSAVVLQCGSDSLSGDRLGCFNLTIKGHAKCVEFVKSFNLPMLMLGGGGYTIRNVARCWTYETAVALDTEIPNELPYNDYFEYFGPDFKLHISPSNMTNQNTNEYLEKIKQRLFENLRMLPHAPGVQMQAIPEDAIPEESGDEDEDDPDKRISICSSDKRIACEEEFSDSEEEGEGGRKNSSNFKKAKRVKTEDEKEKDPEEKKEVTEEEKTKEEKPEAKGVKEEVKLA
T3 sequence (Q92769 whole entry): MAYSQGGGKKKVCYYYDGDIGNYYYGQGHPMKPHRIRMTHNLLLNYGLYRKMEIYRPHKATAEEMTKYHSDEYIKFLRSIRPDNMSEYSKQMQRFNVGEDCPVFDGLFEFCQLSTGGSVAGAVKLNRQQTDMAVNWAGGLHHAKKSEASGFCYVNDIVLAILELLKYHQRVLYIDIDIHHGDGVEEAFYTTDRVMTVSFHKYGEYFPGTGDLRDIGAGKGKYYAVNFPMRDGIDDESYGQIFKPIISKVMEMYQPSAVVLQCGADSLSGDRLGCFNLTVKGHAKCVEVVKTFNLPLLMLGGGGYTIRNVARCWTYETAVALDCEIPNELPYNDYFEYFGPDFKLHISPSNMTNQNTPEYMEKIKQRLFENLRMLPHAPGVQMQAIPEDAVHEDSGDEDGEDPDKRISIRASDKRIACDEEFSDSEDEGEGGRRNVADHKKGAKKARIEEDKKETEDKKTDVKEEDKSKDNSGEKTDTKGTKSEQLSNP

## Nc1ccc(-c2cccs2)cc1NC(=O)c1ccc2c(c1)CCC(=O)N2 [Example 5, N-(2-amino-5-(thiophen-2-yl)phenyl)-2-oxo-1,2,3,4-tetrahydroquinoline-6-carboxamide]
[1]
  IC50: > 10000 nM
[2]; IV 1 mg/kg
  brain penetration (in words): no brain penetration
[2]; [3]
  Brain concentration: 0 ng/mL
  Plasma concentration: 206 ng/mL and 0.57 μM and 270 ng/mL and 0.74 μM
[2]; IV 1 mg/kg, individual mice, 1 mg/kg, read-out: Brain concentration
  concentration at 1 h: 0.00 µM
[2]; mouse, brain, iv, 1 mg/kg, average, read-out: Brain concentration
  concentration at 1 h: 0 ng/mL and 0 nM
[2]; mouse, brain, iv, 1 mg/kg, individual mice, read-out: Brain concentration
  concentration at 1 h: 0 ng/mL and 0 nM
[2]; mouse, plasma, iv, 1 mg/kg, average, read-out: Plasma concentration
  concentration at 1 h: 267 ng/mL and 730 nM
[2]; mouse, plasma, iv, 1 mg/kg, individual mice, read-out: Plasma concentration
  concentration at 1 h: 324 ng/mL and 890 nM
Human HDAC8
  IC50: > 10000 nM
Human HDAC2
  IC50: 34 nM
Human HDAC1
  IC50: 2.5 nM
